Test results from ChEMBL document CHEMBL1629422, “Synthesis and antimicrobial evaluation of some fused heterocyclic [1,2,4]triazolo[3,4-b][1,3,4]thiadiazole derivatives” (2010).
Values after ≈ are worked out from the molar mass of the structure shown.

Columns and labels:
Assay type in all cases: functional
Enterococcus faecalis = assay: Antimicrobial activity against Enterococcus faecalis ATCC 29212 after18 to 20 hrs by broth dilution method
Bacillus cereus = assay: Antimicrobial activity against Bacillus cereus ATCC 13061 after18 to 20 hrs by broth dilution method
Escherichia coli = assay: Antimicrobial activity against Escherichia coli ATCC 25922 after18 to 20 hrs by broth dilution method
Acinetobacter baumannii = assay: Antimicrobial activity against Acinetobacter baumannii ATCC 19606 after18 to 20 hrs by broth dilution method
Candida albicans = assay: Antimicrobial activity against Candida albicans ATCC 90028 after 48 hrs by broth dilution method; conditions: ATCC 90028, 48 h
Citrobacter freundii = assay: Antimicrobial activity against Citrobacter freundii ATCC 8090 after18 to 20 hrs by broth dilution method
Enterobacter cloacae = assay: Antimicrobial activity against Enterobacter cloacae ATCC 49141 after18 to 20 hrs by broth dilution method
Staphylococcus aureus = assay: Antimicrobial activity against Staphylococcus aureus ATCC 25923 after18 to 20 hrs by broth dilution method
[1] = tested on: Staphylococcus epidermidis; assay: Antimicrobial activity against Staphylococcus epidermidis ATCC 14990 after18 to 20 hrs by broth dilution method
Pseudomonas aeruginosa = assay: Antimicrobial activity against Pseudomonas aeruginosa ATCC 27853 after18 to 20 hrs by broth dilution method

| SMILES | MIC (Enterococcus faecalis) [µg/mL] | MIC (Bacillus cereus) [µg/mL] | MIC (Escherichia coli) [µg/mL] | MIC (Acinetobacter baumannii) [µg/mL] | MIC (Candida albicans) [µg/mL] | MIC (Citrobacter freundii) [µg/mL] | MIC (Enterobacter cloacae) [µg/mL] | MIC (Staphylococcus aureus) [µg/mL] | MIC [1] [µg/mL] | MIC (Pseudomonas aeruginosa) [µg/mL] |
| --- | --- | --- | --- | --- | --- | --- | --- | --- | --- | --- |
| O=S(=O)(c1ccccc1)c1ccc(-c2nnc3sc(-c4ccc(Cl)cc4)nn23)cc1 | 512 (≈ 1130 µM) | 1020 (≈ 2260 µM) | 512 (≈ 1130 µM) | 512 (≈ 1130 µM) | 512 (≈ 1130 µM) | 512 (≈ 1130 µM) | 512 (≈ 1130 µM) | 256 (≈ 565 µM) | 512 (≈ 1130 µM) | 512 (≈ 1130 µM) |
| Nc1ccc(-c2nn3c(-c4ccc(S(=O)(=O)c5ccccc5)cc4)nnc3s2)cc1 | 128 (≈ 295 µM) | 256 (≈ 591 µM) | 256 (≈ 591 µM) | 128 (≈ 295 µM) | 256 (≈ 591 µM) | 256 (≈ 591 µM) | 256 (≈ 591 µM) | 512 (≈ 1180 µM) | 64 (≈ 148 µM) | 256 (≈ 591 µM) |
| O=S(=O)(c1ccccc1)c1ccc(-c2nnc3sc(-c4ccc(Br)cc4)nn23)cc1 | 1020 (≈ 2060 µM) | 1020 (≈ 2060 µM) | 512 (≈ 1030 µM) | 1020 (≈ 2060 µM) | 1020 (≈ 2060 µM) | 1020 (≈ 2060 µM) | 512 (≈ 1030 µM) | 512 (≈ 1030 µM) | 1020 (≈ 2060 µM) | 512 (≈ 1030 µM) |
| COc1ccc(-c2nn3c(-c4ccc(S(=O)(=O)c5ccccc5)cc4)nnc3s2)cc1 | 512 (≈ 1140 µM) | 512 (≈ 1140 µM) | 512 (≈ 1140 µM) | 512 (≈ 1140 µM) | 512 (≈ 1140 µM) | 512 (≈ 1140 µM) | 512 (≈ 1140 µM) | 256 (≈ 571 µM) | 512 (≈ 1140 µM) | 256 (≈ 571 µM) |
| NCc1ccc(-c2nn3c(-c4ccc(S(=O)(=O)c5ccccc5)cc4)nnc3s2)cc1 | 512 (≈ 1140 µM) | 1020 (≈ 2290 µM) | 256 (≈ 572 µM) | 1020 (≈ 2290 µM) | 512 (≈ 1140 µM) | 1020 (≈ 2290 µM) | 512 (≈ 1140 µM) | 512 (≈ 1140 µM) | 512 (≈ 1140 µM) | 256 (≈ 572 µM) |
| O=S(=O)(c1ccccc1)c1ccc(-c2nnc3sc(-c4cc(O)c(O)c(O)c4)nn23)cc1 | 32 (≈ 68.6 µM) | 256 (≈ 549 µM) | 256 (≈ 549 µM) | 1020 (≈ 2200 µM) | 512 (≈ 1100 µM) | 1020 (≈ 2200 µM) | 512 (≈ 1100 µM) | 512 (≈ 1100 µM) | 512 (≈ 1100 µM) | 128 (≈ 274 µM) |
| O=S(=O)(c1ccccc1)c1ccc(-c2nnc3sc(-c4ccc(Cl)c(Br)c4)nn23)cc1 | 128 (≈ 241 µM) | 256 (≈ 481 µM) | 128 (≈ 241 µM) | 256 (≈ 481 µM) | 512 (≈ 963 µM) | 1020 (≈ 1930 µM) | 512 (≈ 963 µM) | 256 (≈ 481 µM) | 128 (≈ 241 µM) | 128 (≈ 241 µM) |
| O=S(=O)(c1ccc(Br)cc1)c1ccc(-c2nnc3sc(-c4ccc(Br)cc4)nn23)cc1 | 128 (≈ 222 µM) | 1020 (≈ 1780 µM) | 256 (≈ 444 µM) | 256 (≈ 444 µM) | 128 (≈ 222 µM) | 128 (≈ 222 µM) | 256 (≈ 444 µM) | 256 (≈ 444 µM) | 64 (≈ 111 µM) | 256 (≈ 444 µM) |
| O=S(=O)(c1ccc(Br)cc1)c1ccc(-c2nnc3sc(-c4ccc(Cl)cc4)nn23)cc1 | 64 (≈ 120 µM) | 256 (≈ 481 µM) | 128 (≈ 241 µM) | 256 (≈ 481 µM) | 1020 (≈ 1930 µM) | 512 (≈ 963 µM) | 512 (≈ 963 µM) | 128 (≈ 241 µM) | 128 (≈ 241 µM) | 512 (≈ 963 µM) |
| COc1ccc(-c2nn3c(-c4ccc(S(=O)(=O)c5ccc(Br)cc5)cc4)nnc3s2)cc1 | 512 (≈ 971 µM) | 256 (≈ 485 µM) | 256 (≈ 485 µM) | 256 (≈ 485 µM) | 512 (≈ 971 µM) | 512 (≈ 971 µM) | 1020 (≈ 1940 µM) | 128 (≈ 243 µM) | 512 (≈ 971 µM) | 512 (≈ 971 µM) |
| Nc1ccc(-c2nn3c(-c4ccc(S(=O)(=O)c5ccc(Br)cc5)cc4)nnc3s2)cc1 | 512 (≈ 999 µM) | 128 (≈ 250 µM) | 256 (≈ 500 µM) | 1020 (≈ 2000 µM) | 512 (≈ 999 µM) | 512 (≈ 999 µM) | 1020 (≈ 2000 µM) | 256 (≈ 500 µM) | 512 (≈ 999 µM) | 512 (≈ 999 µM) |
| NCc1ccc(-c2nn3c(-c4ccc(S(=O)(=O)c5ccc(Br)cc5)cc4)nnc3s2)cc1 | 512 (≈ 973 µM) | 256 (≈ 486 µM) | 256 (≈ 486 µM) | 1020 (≈ 1950 µM) | 512 (≈ 973 µM) | 1020 (≈ 1950 µM) | 1020 (≈ 1950 µM) | 512 (≈ 973 µM) | 1020 (≈ 1950 µM) | 128 (≈ 243 µM) |
| O=S(=O)(c1ccc(Br)cc1)c1ccc(-c2nnc3sc(-c4cc(O)c(O)c(O)c4)nn23)cc1 | 64 (≈ 117 µM) | 256 (≈ 469 µM) | 128 (≈ 235 µM) | 128 (≈ 235 µM) | 512 (≈ 939 µM) | 128 (≈ 235 µM) | 256 (≈ 469 µM) | 256 (≈ 469 µM) | 128 (≈ 235 µM) | 128 (≈ 235 µM) |
| O=S(=O)(c1ccc(Br)cc1)c1ccc(-c2nnc3sc(-c4ccc(Cl)c(Br)c4)nn23)cc1 | 32 (≈ 52.4 µM) | 128 (≈ 210 µM) | 64 (≈ 105 µM) | 512 (≈ 838 µM) | 256 (≈ 419 µM) | 1020 (≈ 1680 µM) | 256 (≈ 419 µM) | 64 (≈ 105 µM) | 32 (≈ 52.4 µM) | 32 (≈ 52.4 µM) |
| O=S(=O)(c1ccccc1)c1ccc(-c2nnc3sc(O)nn23)cc1 | 128 (≈ 357 µM) | 1020 (≈ 2860 µM) | 256 (≈ 714 µM) | 128 (≈ 357 µM) | 256 (≈ 714 µM) | 512 (≈ 1430 µM) | 256 (≈ 714 µM) | 256 (≈ 714 µM) | 512 (≈ 1430 µM) | 512 (≈ 1430 µM) |
| O=S(=O)(c1ccc(Br)cc1)c1ccc(-c2nnc3sc(O)nn23)cc1 | 64 (≈ 146 µM) | 1020 (≈ 2340 µM) | 256 (≈ 585 µM) | 256 (≈ 585 µM) | 256 (≈ 585 µM) | 256 (≈ 585 µM) | 256 (≈ 585 µM) | 256 (≈ 585 µM) | 128 (≈ 293 µM) | 256 (≈ 585 µM) |
